Test results reported in patent publication EP4796557A1, “POLYPEPTIDE, BIOACTIVE CONJUGATE, AND PREPARATION METHOD THEREFOR AND USE THEREOF” (priority 2023, dated 2025).
Numbered stars: 1 amine (or outer) side, 2 acyl side, 3 side chain; on linkers, the order of the positions; unused ones are H or OH. Square brackets hold non-standard residues; d marks the D form. Peptide text beside a SMILES is read from it. Cit = NC(=O)NCCC[C@H](N)C(=O)O; X1 = CN(C)CC(N[*:1])C(=O)[*:2]

What was measured:
MMP2 = target: T1, MMP2 (Homo sapiens, UniProt P08253); assay: Enzymolysis assay of polypeptides by MMP2 (RP-HPLC); type: biochemical; conditions: test polypeptide 100 µmol, activated MMP2, 37°C, 4 h
T1 sequence (P08253 110-660): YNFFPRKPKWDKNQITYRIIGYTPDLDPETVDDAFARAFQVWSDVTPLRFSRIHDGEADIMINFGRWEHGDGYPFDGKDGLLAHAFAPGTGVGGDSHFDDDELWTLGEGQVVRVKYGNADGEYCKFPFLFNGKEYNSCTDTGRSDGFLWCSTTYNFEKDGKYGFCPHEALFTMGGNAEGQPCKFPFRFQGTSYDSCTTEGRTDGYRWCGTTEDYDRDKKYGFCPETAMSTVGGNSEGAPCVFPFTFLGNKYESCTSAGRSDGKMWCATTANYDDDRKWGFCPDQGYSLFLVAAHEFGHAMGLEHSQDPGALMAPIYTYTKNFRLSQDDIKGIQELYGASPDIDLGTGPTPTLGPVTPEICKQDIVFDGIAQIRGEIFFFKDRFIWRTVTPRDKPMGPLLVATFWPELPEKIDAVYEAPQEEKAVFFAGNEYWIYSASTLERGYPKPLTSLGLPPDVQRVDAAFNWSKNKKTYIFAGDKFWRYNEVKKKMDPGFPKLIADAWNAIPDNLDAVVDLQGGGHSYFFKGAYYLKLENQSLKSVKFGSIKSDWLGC
Method: (§1) First, MMP2 or MMP9 enzyme solution having a final concentration of 200 µg/mL was mixed with 4 mM APMA at a ratio of 1:1, placed in a 37°C water bath and incubated for 24 h to activate the MMP2 or MMP9 enzyme solution. Subsequently, the test polypeptide having a final concentration of 100 µmol was incubated with the activated MMP2 or MMP9 enzyme solution in a 37°C water bath for 4 h. After the reaction was complete, an equal volume of acetonitrile solution was added thereto, followed by RP-HPLC analysis.
(§2) The enzymolysis efficiency of the polypeptide was calculated based on the peak areas of the target peak before and after enzymolysis. The formula is as follows: Enzymolysis efficiency = […] [formula]

MMP9 = MMP9 (Homo sapiens, UniProt P14780); assay: Enzymolysis assay of polypeptides by MMP9 (RP-HPLC); type: biochemical; conditions: polypeptide 100 µmol with activated MMP9, 37°C, 4 h, RP-HPLC peak areas
Sequence of MMP9 (P14780 107-707 limits assumed, species assumed): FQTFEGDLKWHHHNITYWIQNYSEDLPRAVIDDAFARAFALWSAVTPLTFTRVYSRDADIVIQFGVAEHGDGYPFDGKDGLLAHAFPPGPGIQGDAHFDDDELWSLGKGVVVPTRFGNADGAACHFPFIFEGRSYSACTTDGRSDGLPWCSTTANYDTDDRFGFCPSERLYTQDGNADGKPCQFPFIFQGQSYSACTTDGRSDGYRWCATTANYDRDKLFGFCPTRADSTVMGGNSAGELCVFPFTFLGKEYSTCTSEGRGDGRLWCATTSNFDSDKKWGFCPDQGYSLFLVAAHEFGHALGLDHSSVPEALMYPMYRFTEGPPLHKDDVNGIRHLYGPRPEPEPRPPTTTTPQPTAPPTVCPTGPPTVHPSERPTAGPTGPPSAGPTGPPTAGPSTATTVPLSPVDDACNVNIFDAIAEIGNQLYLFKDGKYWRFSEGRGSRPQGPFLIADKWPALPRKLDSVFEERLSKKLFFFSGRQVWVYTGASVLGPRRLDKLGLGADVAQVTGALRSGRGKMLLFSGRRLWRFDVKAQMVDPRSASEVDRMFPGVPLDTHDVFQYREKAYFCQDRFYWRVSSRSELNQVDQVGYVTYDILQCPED
Method: as §1, §2

## CC(=O)NCC(=O)N1CCC[C@H]1C(=O)N[C@@H](CCCNC(=N)N)C(=O)N[C@@H](CO)C(=O)N[C@@H](CC(C)C)C(=O)N[C@H](C(=O)N[C@@H](CCCNC(N)=O)C(N)=O)C(C)C [Compound 2-P7] (Ac-GPRSLV[Cit]-NH2)
MMP2
  Enzymolysis efficiency (%): 62.64%
MMP9
  Enzymolysis efficiency (%): 77.95%

## CC(=O)N[C@@H](CO)C(=O)N1CCC[C@H]1C(=O)N[C@@H](CCCNC(=N)N)C(=O)N[C@@H](CC(N)=O)C(=O)N[C@@H](CC(C)C)C(=O)N[C@H](C(=O)N[C@@H](CCCNC(N)=O)C(N)=O)C(C)C [Compound 2-P21] (Ac-SPRNLV[Cit]-NH2)
MMP2
  Enzymolysis efficiency (%): 70.46%
MMP9
  Enzymolysis efficiency (%): 95.84%

## CC(=O)NCC(=O)N1CCC[C@H]1C(=O)N[C@@H](CCCNC(=N)N)C(=O)NCC(=O)NC(CN(C)C)C(=O)N[C@H](C(=O)N[C@@H](CCCNC(N)=O)C(N)=O)C(C)C (stereo partly shown) [Compound 2-P27] (Ac-GPRG[X1]V[Cit]-NH2)
MMP2
  Enzymolysis efficiency (%): 9.00%
MMP9
  Enzymolysis efficiency (%): 10.53%

## CC(=O)N[C@@H](Cc1c[nH]cn1)C(=O)N1CCC[C@H]1C(=O)N[C@@H](CCCNC(N)=O)C(=O)NCC(=O)N[C@@H](CC(C)C)C(=O)N[C@H](C(=O)N[C@@H](CCCNC(N)=O)C(N)=O)C(C)C [Compound 2-P16] (Ac-HP[Cit]GLV[Cit]-NH2)
MMP2
  Enzymolysis efficiency (%): 53.54%
MMP9
  Enzymolysis efficiency (%): 64.81%

## CC(=O)N1CCC[C@H]1C(=O)N[C@@H](CCCNC(=N)N)C(=O)N[C@@H](CC(N)=O)C(=O)N[C@@H](CC(C)C)C(=O)N[C@H](C(=O)N[C@@H](CCCNC(N)=O)C(N)=O)C(C)C [Compound 2-P3] (Ac-PRNLV[Cit]-NH2)
MMP2
  Enzymolysis efficiency (%): 66.36%
MMP9
  Enzymolysis efficiency (%): 97.39%

## CC(=O)NCC(=O)N1CCC[C@H]1C(=O)N[C@@H](C)C(=O)N[C@@H](C)C(=O)N[C@@H](CC(C)C)C(=O)N[C@H](C(=O)N[C@@H](CCCNC(N)=O)C(N)=O)C(C)C [Compound 1-P12] (Ac-GPAALV[Cit]-NH2)
MMP2
  Enzymolysis efficiency (%): 38.94%
MMP9
  Enzymolysis efficiency (%): 20.93%

## Ac-GPAALGGFG-NH2 [Compound 1-P24]
MMP2
  Enzymolysis efficiency (%): 96.89%
MMP9
  Enzymolysis efficiency (%): 37.13%

## CC(=O)NCC(=O)N1CCC[C@H]1C(=O)N[C@@H](CO)C(=O)N[C@@H](C)C(=O)N[C@@H](CC(C)C)C(=O)N[C@H](C(=O)N[C@@H](CCCNC(N)=O)C(N)=O)C(C)C [Compound 1-P13] (Ac-GPSALV[Cit]-NH2)
MMP2
  Enzymolysis efficiency (%): 90.13%
MMP9
  Enzymolysis efficiency (%): 45.08%

## CC(=O)NCC(=O)N1CCC[C@H]1C(=O)N[C@@H](C)C(=O)N[C@@H](CO)C(=O)N[C@@H](CC(C)C)C(=O)N[C@H](C(=O)N[C@@H](CCCNC(N)=O)C(N)=O)C(C)C [Compound 1-P6] (Ac-GPASLV[Cit]-NH2)
MMP2
  Enzymolysis efficiency (%): 86.72%
MMP9
  Enzymolysis efficiency (%): 28.79%

## CC(=O)NCC(=O)N1CCC[C@H]1C(=O)N[C@@H](C)C(=O)N[C@@H](CC(N)=O)C(=O)N[C@@H](CC(C)C)C(=O)N[C@H](C(=O)N[C@@H](CCCNC(N)=O)C(N)=O)C(C)C [Compound 2-P26] (Ac-GPANLV[Cit]-NH2)
MMP2
  Enzymolysis efficiency (%): 100.00%
MMP9
  Enzymolysis efficiency (%): 84.35%

## Ac-GPSALGGFG-NH2 [Compound 1-P25]
MMP2
  Enzymolysis efficiency (%): 83.12%
MMP9
  Enzymolysis efficiency (%): 38.53%

## CC(=O)N[C@@H](CO)C(=O)N1CCC[C@H]1C(=O)N[C@@H](CCCNC(N)=O)C(=O)NCC(=O)N[C@@H](CC(C)C)C(=O)N[C@H](C(=O)N[C@@H](CCCNC(N)=O)C(N)=O)C(C)C [Compound 2-P22] (Ac-SP[Cit]GLV[Cit]-NH2)
MMP2
  Enzymolysis efficiency (%): 55.25%
MMP9
  Enzymolysis efficiency (%): 73.74%

## CC(=O)N[C@@H](Cc1c[nH]cn1)C(=O)N[C@H](C(=O)N[C@@H](CC(C)C)C(=O)N[C@@H](CC(N)=O)C(=O)N[C@@H](CC(C)C)C(=O)N[C@H](C(=O)N[C@@H](CCCNC(N)=O)C(N)=O)C(C)C)C(C)C [Compound 1-P2] (Ac-HVLNLV[Cit]-NH2)
MMP2
  Enzymolysis efficiency (%): 14.28%
